Paper PMC6751026 (Addiction biology, 2019)

Target: T1, α1 glycine receptor (GlyR) (Mus musculus, UniProt Q64018, K421A/K422A)
T1 sequence (Q64018 29-457 K421A/K422A): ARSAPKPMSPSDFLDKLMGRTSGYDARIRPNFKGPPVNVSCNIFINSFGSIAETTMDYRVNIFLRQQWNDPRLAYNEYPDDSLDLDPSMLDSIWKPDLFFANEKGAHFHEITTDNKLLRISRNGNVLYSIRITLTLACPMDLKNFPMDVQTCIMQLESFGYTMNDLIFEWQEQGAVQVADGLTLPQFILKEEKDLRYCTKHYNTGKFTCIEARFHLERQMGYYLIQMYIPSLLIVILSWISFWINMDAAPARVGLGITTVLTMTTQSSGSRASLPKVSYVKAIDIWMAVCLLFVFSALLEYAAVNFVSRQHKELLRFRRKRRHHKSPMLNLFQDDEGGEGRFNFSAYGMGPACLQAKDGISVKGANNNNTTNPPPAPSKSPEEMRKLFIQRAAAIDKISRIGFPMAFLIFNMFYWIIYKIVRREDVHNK
Assay: whole-cell patch clamp, glycine concentration-response
Format: cell-based

**Q.** `NCC(=O)O` [glycine] was tested. Which EC50 did it give?
**A.** The EC50 was 54 ± 1 µM.
